System: Metabolism protein genes
Assay: DNA chip mRNA expression in yeast, metabolism protein genes (Table 7)
Format: cell-based, Saccharomyces cerevisiae S288C
Protocol: Yeast (Saccharomyces cerevisiae S288C (α SUC2mal mel gap2 CUP1)) were incubated at 25° C. on YPD medium (yeast extract 1%, polypepton 2%, glucose 2%). One of toxic chemical substances was added to the cells at logarithmic growth phase, and the cells were further incubated for two hours. Cells were cultured without any chemical substance in the same condition, and were used as control. Concentrations of the chemical substances were defined to inhibit the growth of the yeast but not lead to death.
After completion of the incubation, the culture was centrifuged to collect the cells. To the cells, sodium acetate buffer (50 mM sodium acetate, 10 mM EDTA, 1% SDS) was added, and the mixture was shaken at 65° C. for five minutes, followed by returning to room temperature, and obtaining the supernatant, of which the procedures were repeated two times. To the supernatant, ½ amount of a solution of phenol/chloroform was added, and the mixture was centrifuged to give a supernatant, which was added with an equal amount of chloroform, and the mixture was centrifuged to give a supernatant. To the supernatant, an equal amount of isopropanol containing 0.3 M sodium acetate was added, and the mixture was allowed to stand at room temperature for 30 minutes, after which the mixture was centrifuged to give a sediment of the whole RNAs. Seventy % ethanol was added to the sediment, and the mixture was again centrifuged to give a sediment, which was then dried and dissolved in water. mRNA was isolated from the whole RNAs as followings. In view of the fact that a poly A chain is attached to the 3′ terminus of mRNA, a polynucleotide having a poly T structure which was immobilized on the surface of latex beads was used to trap the mRNA, and then the mRNA was washed and eluted with spine column (Oligotex-dT30<Super>mRNA Purification Kit, Takara). Reverse transcription of the mRNA was conducted with a reverse transcriptase (Super Script II Reverse Transcriptase; catalogue No. 18064-014, GibcoBRL) using fluorescence-labeled nucleotides to give cDNAs that were introduced with Cy3-dUTP or Cy5-dUTP during the reverse transcription.
The labeled cDNAs were dissolved in TE buffer (10mM Tris-HCl/1 mM EDTA, pH8.0), and the solution was dropped on the DNA chip containing the whole genes of yeast (DNA Chip Research Inc. Japan) so that the cDNAs were hybridized on the DNA chip at 65° C. for over 12 hours. The fluoresces intensity of the DNA chip was read with a scanner, and the ratio relative to the fluorescence intensity resulting from the absence of chemical substance was estimated as the following, which is shown in Tables 1 to 9: […]

Structure (SMILES): O=[N+]([O-])c1cc[n+]([O-])c2ccccc12 [(5), 4-nitroquinolin-N-oxide]
- The level of expressed mRNA in the presence of chemical substance/The level of expressed mRNA in the absence of chemical substance (yeast gene YAL012W): 0.6
- The level of expressed mRNA in the presence of chemical substance/The level of expressed mRNA in the absence of chemical substance (yeast gene YAL038W): 1.4
- The level of expressed mRNA in the presence of chemical substance/The level of expressed mRNA in the absence of chemical substance (yeast gene YAR071W): 1.6
- level of expressed mRNA in the presence/in the absence of chemical substance (yeast gene YBR003W): 0.7
- level of expressed mRNA in the presence/in the absence of chemical substance (yeast gene YBR011C): 0.9
- level of expressed mRNA in the presence/in the absence of chemical substance (yeast gene YBR020W): 1.0
- The level of expressed mRNA in the presence of chemical substance/The level of expressed mRNA in the absence of chemical substance (yeast gene YBR023C): 0.8
- The level of expressed mRNA in the presence of chemical substance/The level of expressed mRNA in the absence of chemical substance (yeast gene YBR029C): 1.4
- The level of expressed mRNA in the presence of chemical substance/The level of expressed mRNA in the absence of chemical substance (yeast gene YBR183W): 0.9
- The level of expressed mRNA in the presence of chemical substance/The level of expressed mRNA in the absence of chemical substance (yeast gene YBR222C): 0.7
- The level of expressed mRNA in the presence of chemical substance/The level of expressed mRNA in the absence of chemical substance (yeast gene YBR256C): 1.6
- The level of expressed mRNA in the presence of chemical substance/The level of expressed mRNA in the absence of chemical substance (yeast gene YBR299W): 1.6
- The level of expressed mRNA in the presence of chemical substance/The level of expressed mRNA in the absence of chemical substance (yeast gene YCL009C): 0.7
- The level of expressed mRNA in the presence of chemical substance/The level of expressed mRNA in the absence of chemical substance (yeast gene YCL064C): 1.4
- level of expressed mRNA in the presence/in the absence of chemical substance (yeast gene YCR010C): 1.7
- level of expressed mRNA in the presence/in the absence of chemical substance (yeast gene YCR034W): 0.9
- The level of expressed mRNA in the presence of chemical substance/The level of expressed mRNA in the absence of chemical substance (yeast gene YCR048W): 0.9
- The level of expressed mRNA in the presence of chemical substance/The level of expressed mRNA in the absence of chemical substance (yeast gene YCR098C): 1.4
- The level of expressed mRNA in the presence of chemical substance/The level of expressed mRNA in the absence of chemical substance (yeast gene YDR019C): 0.9
- level of expressed mRNA in the presence/in the absence of chemical substance (yeast gene YDR050C): 0.9
- level of expressed mRNA in the presence/in the absence of chemical substance (yeast gene YDR073W): 1.2
- level of expressed mRNA in the presence/in the absence of chemical substance (yeast gene YDR123C): 1.6
- level of expressed mRNA in the presence/in the absence of chemical substance (yeast gene YDR178W): 0.9
- level of expressed mRNA in the presence/in the absence of chemical substance (yeast gene YDR277C): 0.8
- level of expressed mRNA in the presence/in the absence of chemical substance (yeast gene YDR284C): 0.8
- level of expressed mRNA in the presence/in the absence of chemical substance (yeast gene YDR345C): 1.3
- The level of expressed mRNA in the presence of chemical substance/The level of expressed mRNA in the absence of chemical substance (yeast gene YDR380W): 1.1
- level of expressed mRNA in the presence/in the absence of chemical substance (yeast gene YDR400W): 1.0
- level of expressed mRNA in the presence/in the absence of chemical substance (yeast gene YDR408C): 0.9
- level of expressed mRNA in the presence/in the absence of chemical substance (yeast gene YDR483W): 0.7
- The level of expressed mRNA in the presence of chemical substance/The level of expressed mRNA in the absence of chemical substance (yeast gene YDR497C): 0.7
- The level of expressed mRNA in the presence of chemical substance/The level of expressed mRNA in the absence of chemical substance (yeast gene YDR502C): 1.5
- The level of expressed mRNA in the presence of chemical substance/The level of expressed mRNA in the absence of chemical substance (yeast gene YDR516C): 1.3
- level of expressed mRNA in the presence/in the absence of chemical substance (yeast gene YEL063C): 1.2
- level of expressed mRNA in the presence/in the absence of chemical substance (yeast gene YER015W): 1.3
- The level of expressed mRNA in the presence of chemical substance/The level of expressed mRNA in the absence of chemical substance (yeast gene YER026C): 1.2
- The level of expressed mRNA in the presence of chemical substance/The level of expressed mRNA in the absence of chemical substance (yeast gene YER053C): 0.6
- The level of expressed mRNA in the presence of chemical substance/The level of expressed mRNA in the absence of chemical substance (yeast gene YER069W): 1.5
- level of expressed mRNA in the presence/in the absence of chemical substance (yeast gene YER081W): 1.1
- The level of expressed mRNA in the presence of chemical substance/The level of expressed mRNA in the absence of chemical substance (yeast gene YER096W): 1.3
- level of expressed mRNA in the presence/in the absence of chemical substance (yeast gene YER120W): 0.8
- The level of expressed mRNA in the presence of chemical substance/The level of expressed mRNA in the absence of chemical substance (yeast gene YER178W): 0.7
- level of expressed mRNA in the presence/in the absence of chemical substance (yeast gene YFL011W): 1.3
- The level of expressed mRNA in the presence of chemical substance/The level of expressed mRNA in the absence of chemical substance (yeast gene YFL014W): 1.0
- The level of expressed mRNA in the presence of chemical substance/The level of expressed mRNA in the absence of chemical substance (yeast gene YFL030W): 1.1
- The level of expressed mRNA in the presence of chemical substance/The level of expressed mRNA in the absence of chemical substance (yeast gene YFL031W): 1.0
